Reference: ChEMBL document CHEMBL1201862, “PubChem BioAssay data set” (2004)
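Dose response: 5 concentrations. Exposure: 48 h. Format: 96-well plates. Endpoint: linear interpolation; highest concentration if not reached. Here, GI50 denotes the concentration required for 50% inhibition of growth.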 Calls of active or inactive are those of the source. Rule as the data show it: active = GI50 up to about 1.1 µM and inactive = higher.

Experiments:
Assay in all cases: growth of human tumour cells (NCI), 48 h
SNB-75 = test system: SNB-75
RPMI-8226 = test system: RPMI-8226
COLO 205 = test system: COLO 205
SK-OV-3 = test system: SK-OV-3
Hs-578T = test system: Hs-578T
SN12C = test system: SN12C
NCI-H226 = test system: NCI-H226
ACHN = test system: ACHN
HL-60 = test system: HL-60
U-251 = test system: U-251
UACC-257 = test system: UACC-257
EKVX = test system: EKVX
OVCAR-3 = test system: OVCAR-3
HT-29 = test system: HT-29
KM12 = test system: KM12
HOP-92 = test system: HOP-92
A498 = test system: A498
HOP-62 = test system: HOP-62
IGROV-1 = test system: IGROV-1
MDA-MB-231 = test system: MDA-MB-231

Row | SMILES | GI50 (SNB-75) | GI50 (RPMI-8226) | GI50 (COLO 205) | GI50 (SK-OV-3) | GI50 (Hs-578T) | GI50 (SN12C) | GI50 (NCI-H226) | GI50 (ACHN) | GI50 (HL-60) | GI50 (U-251) | GI50 (UACC-257) | GI50 (EKVX) | GI50 (OVCAR-3) | GI50 (HT-29) | GI50 (KM12) | GI50 (HOP-92) | GI50 (A498) | GI50 (HOP-62) | GI50 (IGROV-1) | GI50 (MDA-MB-231)
1 | CC1(C(=O)O)CCC2(C)CCC3(C)C(=CC(=O)C4C5(C)CCC(O)C(C)(C)C5CCC43C)C2C1 (stereo not drawn) | 33.8 µM (inactive) | > 10 µM (inactive) | 38.8 µM (inactive) | 43.4 µM (inactive) | 28.6 µM (inactive) | 41.8 µM (inactive) | 25.8 µM (inactive) | 22.6 µM (inactive) | 24.6 µM (inactive) | 43.1 µM (inactive) | 33.9 µM (inactive) | 34.9 µM (inactive) | 19.3 µM (inactive) | 20.2 µM (inactive) | 18.3 µM (inactive) |  |  |  |  | 
2 | c1cc2c(cnc3cscc32)s1 | 57.7 µM (inactive) | > 100 µM (inactive) |  |  |  | > 100 µM (inactive) | > 100 µM (inactive) | > 100 µM (inactive) | > 100 µM (inactive) | > 100 µM (inactive) | > 100 µM (inactive) |  | > 100 µM (inactive) | > 100 µM (inactive) | > 100 µM (inactive) | > 100 µM (inactive) | > 100 µM (inactive) | > 100 µM (inactive) |  | 
3 | CCCCCCCCCCCC(=O)OCC1OC(n2cc(F)c(=O)[nH]c2=O)C(N)C(O)C1O (stereo not drawn) | > 100 µM (inactive) | > 100 µM (inactive) | 60.3 µM (inactive) | > 100 µM (inactive) |  | > 100 µM (inactive) | > 100 µM (inactive) | > 100 µM (inactive) | 38.9 µM (inactive) | 79.1 µM (inactive) | > 100 µM (inactive) | > 100 µM (inactive) | > 100 µM (inactive) | 55.3 µM (inactive) | 77.4 µM (inactive) | > 100 µM (inactive) | > 100 µM (inactive) | > 100 µM (inactive) | > 100 µM (inactive) | 
4 | CC1CC(c2ccc([N+](=O)[O-])cc2)=Nc2ccccc2S1 (stereo not drawn) | 37.6 µM (inactive) | 2.3 µM (inactive) | 24 µM (inactive) | 17.1 µM (inactive) |  | 18.2 µM (inactive) | 23.2 µM (inactive) | 19.7 µM (inactive) | 7.45 µM (inactive) | 15.2 µM (inactive) | 18.7 µM (inactive) | 23.6 µM (inactive) | 11.5 µM (inactive) | 13.4 µM (inactive) | 12.6 µM (inactive) | 29 µM (inactive) | 19 µM (inactive) | 44.9 µM (inactive) | 18 µM (inactive) | 
5 | O=C1C2Cc3ccccc3CN2C(=O)N1CN1CCN(CN2C(=O)C3Cc4ccccc4CN3C2=O)CC1 (stereo not drawn) | > 100 µM (inactive) | > 100 µM (inactive) | > 100 µM (inactive) | > 100 µM (inactive) |  | > 100 µM (inactive) | > 100 µM (inactive) | > 100 µM (inactive) | > 100 µM (inactive) | > 100 µM (inactive) | > 100 µM (inactive) | > 100 µM (inactive) | > 100 µM (inactive) | > 100 µM (inactive) | > 100 µM (inactive) | > 100 µM (inactive) | > 100 µM (inactive) | > 100 µM (inactive) | > 100 µM (inactive) | 
6 | COc1ccc([C@]23CCN(S(=O)(=O)c4ccc(C)cc4)[C@H]2[C@H](CO)C2(CC3)OCC(C)(C)CO2)cc1OC | > 100 µM (inactive) | > 100 µM (inactive) | > 100 µM (inactive) | > 100 µM (inactive) |  | > 100 µM (inactive) | > 100 µM (inactive) | > 100 µM (inactive) | > 100 µM (inactive) | > 100 µM (inactive) | > 100 µM (inactive) | > 100 µM (inactive) | > 100 µM (inactive) | > 100 µM (inactive) | > 100 µM (inactive) | > 100 µM (inactive) | > 100 µM (inactive) | > 100 µM (inactive) | > 100 µM (inactive) | > 100 µM (inactive)
7 | CC1=C(C(=O)Nc2ccc([N+](=O)[O-])cc2)C(c2cccc([N+](=O)[O-])c2)C(C(=O)Nc2ccc([N+](=O)[O-])cc2)=C(C)N1 | 23.7 µM (inactive) | 7.78 µM (inactive) | 45.8 µM (inactive) | 8.45 µM (inactive) |  | 30.5 µM (inactive) | 58.3 µM (inactive) | 20 µM (inactive) | 16.4 µM (inactive) | 9.71 µM (inactive) | 16 µM (inactive) | 48.2 µM (inactive) | 44.5 µM (inactive) | 21.9 µM (inactive) | 12.1 µM (inactive) | 5.31 µM (inactive) | 32.8 µM (inactive) | 64.3 µM (inactive) | 21.2 µM (inactive) | 
8 | Nc1ncnc2c1ncn2CC(O)CO (stereo not drawn) | > 100 µM (inactive) | > 100 µM (inactive) | > 100 µM (inactive) | > 100 µM (inactive) |  | > 100 µM (inactive) | > 100 µM (inactive) |  | > 100 µM (inactive) |  | > 100 µM (inactive) | > 100 µM (inactive) | > 100 µM (inactive) | > 100 µM (inactive) | > 100 µM (inactive) | > 100 µM (inactive) | > 100 µM (inactive) |  | > 100 µM (inactive) | 
9 | CC(C)(C)C1CCC2(CC1)c1[nH]c3ccccc3c1C1(CCC(C(C)(C)C)CC1)c1[nH]c3ccccc3c12 (stereo not drawn) | 70.1 µM (inactive) | > 100 µM (inactive) | 88.9 µM (inactive) | > 100 µM (inactive) |  | > 100 µM (inactive) | > 100 µM (inactive) | > 100 µM (inactive) | > 100 µM (inactive) | 87.3 µM (inactive) | > 100 µM (inactive) | > 100 µM (inactive) |  | > 100 µM (inactive) | > 100 µM (inactive) | > 100 µM (inactive) | > 100 µM (inactive) | > 100 µM (inactive) | > 100 µM (inactive) | 
10 | CS(=O)(=O)c1ccc(C(=O)O[C@@H]2C(=O)N3CC[C@H]4OC(O)[C@@H]2[C@H]43)cc1 (stereo partly drawn) | 58.1 µM (inactive) | > 100 µM (inactive) | > 100 µM (inactive) | > 100 µM (inactive) |  |  | > 100 µM (inactive) | > 100 µM (inactive) |  | > 100 µM (inactive) | > 100 µM (inactive) | > 100 µM (inactive) | > 100 µM (inactive) | > 100 µM (inactive) | > 100 µM (inactive) |  | > 100 µM (inactive) | > 100 µM (inactive) |  | > 100 µM (inactive)
11 | N#Cc1cccc(/C=N/C23CC4CC(CC(C4)C2)C3)c1 | > 10 µM (inactive) | 52.2 µM (inactive) | > 100 µM (inactive) | > 100 µM (inactive) |  | > 100 µM (inactive) | > 100 µM (inactive) | > 100 µM (inactive) | 21.3 µM (inactive) | > 100 µM (inactive) | > 100 µM (inactive) | > 100 µM (inactive) | > 100 µM (inactive) | > 100 µM (inactive) | > 100 µM (inactive) | > 100 µM (inactive) | > 100 µM (inactive) | > 100 µM (inactive) | > 100 µM (inactive) | 
12 | COc1cc(NC(C)=O)ccc1C(=O)N/N=C/c1ccco1 | > 100 µM (inactive) | 77.6 µM (inactive) | 31.8 µM (inactive) | > 100 µM (inactive) | > 100 µM (inactive) | > 100 µM (inactive) |  | 63 µM (inactive) | 46.5 µM (inactive) |  |  | > 100 µM (inactive) | > 100 µM (inactive) | > 100 µM (inactive) | > 100 µM (inactive) | > 100 µM (inactive) | > 100 µM (inactive) | > 100 µM (inactive) | > 100 µM (inactive) | 
13 | COC12CC(O)=C(C(C)=O)C(=O)C1(C)c1c(OC(C)=O)c(C)c(O)c(C(C)=O)c1O2 (stereo not drawn) | 16 µM (inactive) | 7.71 µM (inactive) |  |  |  | 11.6 µM (inactive) | 13.8 µM (inactive) | 12.3 µM (inactive) | 15.8 µM (inactive) | 9.25 µM (inactive) | 23.6 µM (inactive) | 31 µM (inactive) | 14.1 µM (inactive) | 20.5 µM (inactive) | 12 µM (inactive) | 18.4 µM (inactive) | 17.3 µM (inactive) | 22.8 µM (inactive) | 7.89 µM (inactive) | 
14 | O=c1c(/C=C/c2c(O)ccc3ccccc23)nnc2sc(-c3cccc(Br)c3)nn12 |  | 10.3 µM (inactive) | 39.2 µM (inactive) | 30.1 µM (inactive) | 35.9 µM (inactive) |  |  | 16.1 µM (inactive) | 3.94 µM (inactive) | 25.2 µM (inactive) | 23.7 µM (inactive) | 16.7 µM (inactive) | 3.89 µM (inactive) | 29.9 µM (inactive) | 20.7 µM (inactive) |  | 26.7 µM (inactive) | 24.8 µM (inactive) | 0.773 µM (active) | 
15 | COc1cc(/C=C2\CCC(C)(CN(C)C)C2=O)cc(OC)c1OC (stereo not drawn) | > 100 µM (inactive) | 40.8 µM (inactive) | > 100 µM (inactive) | > 100 µM (inactive) |  | > 100 µM (inactive) | > 100 µM (inactive) | > 100 µM (inactive) | 1.57 µM (inactive) | > 100 µM (inactive) | > 100 µM (inactive) | > 58.3 µM (inactive) | > 100 µM (inactive) | > 100 µM (inactive) | > 100 µM (inactive) | > 100 µM (inactive) | > 100 µM (inactive) | > 100 µM (inactive) | > 100 µM (inactive) | 
16 | COC(=O)[C@@H](NC1(c2ccccc2)c2ccccc2-c2ccccc21)[C@H](OC(=O)[C@H]1CCCN1S(=O)(=O)c1ccccc1)C(=O)OC | 63.2 µM (inactive) |  | > 100 µM (inactive) | 70.6 µM (inactive) |  | > 100 µM (inactive) | > 100 µM (inactive) | > 100 µM (inactive) | > 100 µM (inactive) | > 100 µM (inactive) | > 100 µM (inactive) | 99.5 µM (inactive) | > 100 µM (inactive) | > 100 µM (inactive) | > 100 µM (inactive) | < 0.01 µM (active) | > 100 µM (inactive) | > 100 µM (inactive) | > 100 µM (inactive) | > 100 µM (inactive)
